In PubChem BioAssay (NCI) one finds GI50 and TGI data, which are given here for 8 molecules.

The structures appear in SMILES notation. “And” between values parts separate entries of the source, which are not always exact repeats. Equal entries are not always repeated.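 Briefly, cells in 96-well plates were exposed to five compound concentrations for 48 h, and endpoints were estimated by linear interpolation. At the GI50, growth is halved. TGI: concentration producing complete growth inhibition.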

Some test systems named below: MDA-MB-435; NCI-H460 lung; NCI/ADR-RES ovarian; OVCAR-4 ovarian; PC-3 prostate; SF-268 CNS; SF-295 CNS; SK-MEL-5 melanoma; SNB-19 CNS; SNB-75 CNS.
Experiment in all cases: inhibition of tumour cell growth, NCI panel, 48 h

Consider `COc1cc2c(cc1OC)C(=O)/C(=C/c1cccc(OCC(=O)c3ccccc3)c1)C2`, for which the GI50 was 23.1 µM in the assay with MDA-MB-435; 13.3 µM in the assay with NCI-H460 lung; 6.93 µM in the assay with NCI/ADR-RES ovarian; 30.4 µM with OVCAR-4 ovarian; 5.11 µM with PC-3 prostate; 15.3 µM in the assay on SF-268 CNS. Moreover, the GI50 with SF-295 CNS was 5.06 µM; with SK-MEL-5 melanoma, 4.24 µM; in the assay on SNB-19 CNS it was 25.7 µM; with SNB-75 CNS it was 12 µM. Moreover, the TGI in the assay with MDA-MB-435 is greater than 100 µM; in the assay on NCI-H460 lung it was 91.9 µM; with NCI/ADR-RES ovarian, greater than 100 µM; with OVCAR-4 ovarian, greater than 100 µM; with PC-3 prostate it was greater than 100 µM; in the assay on SF-268 CNS it was 63.3 µM. Further, the TGI is 40.8 µM with SF-295 CNS, greater than 100 µM in the assay with SK-MEL-5 melanoma, greater than 100 µM in the assay with SNB-19 CNS and 37.8 µM with SNB-75 CNS.
With `C=CCn1c2c(c3ccccc3c1=O)C(=O)c1ccccc1-2`, the TGI in the assay with MDA-MB-435, in the assay with NCI-H460 lung, in the assay with NCI/ADR-RES ovarian, with OVCAR-4 ovarian, in the assay on PC-3 prostate and in the assay with SF-268 CNS was greater than 100 µM throughout. For the same molecule, the TGI in the assay on SF-295 CNS, in the assay with SK-MEL-5 melanoma, in the assay with SNB-19 CNS and with SNB-75 CNS was greater than 100 µM throughout.
Turning to `CN(C)c1cccc2c(S(=O)(=O)N[C@H]3CC[C@H]4[C@@H]5CCc6cc(O)ccc6[C@H]5CC[C@]34C)cccc12`, the GI50 in the assay with MDA-MB-435 is 1.15 µM; with NCI-H460 lung, 2 µM; in the assay on NCI/ADR-RES ovarian it was 2.74 µM; in the assay with OVCAR-4 ovarian it was 2.8 µM; with PC-3 prostate, 2.36 µM; in the assay on SF-268 CNS, 3.03 µM. The GI50 in the assay on SF-295 CNS was 1.02 µM; in the assay with SK-MEL-5 melanoma it was 1.53 µM; in the assay on SNB-19 CNS, 3.43 µM; with SNB-75 CNS, 1.75 µM. The TGI with MDA-MB-435 is 2.69 µM; with NCI-H460 lung it was 4.52 µM; in the assay with NCI/ADR-RES ovarian it was 9.9 µM; in the assay on OVCAR-4 ovarian, 13.8 µM; in the assay on PC-3 prostate, greater than 100 µM; in the assay on SF-268 CNS, 15 µM. Besides, the TGI is 2.7 µM with SF-295 CNS, 2.9 µM with SK-MEL-5 melanoma, greater than 100 µM in the assay on SNB-19 CNS and 9.52 µM in the assay on SNB-75 CNS.
As to `COc1cc(C2CC(c3ccc(C)cc3)=NN2C=O)ccc1Oc1ccnc2cc(Cl)ccc12` (stereo not drawn), the GI50 was greater than 50 µM in the assay with MDA-MB-435; greater than 50 µM in the assay with NCI-H460 lung; greater than 50 µM with NCI/ADR-RES ovarian; greater than 50 µM in the assay on PC-3 prostate; 11.3 µM in the assay with SF-268 CNS; 4.41 µM in the assay with SF-295 CNS. The GI50 is greater than 50 µM in the assay on SK-MEL-5 melanoma, 9.53 µM in the assay with SNB-19 CNS and 1.13 µM with SNB-75 CNS. In addition, the TGI in the assay on MDA-MB-435 was greater than 50 µM; with NCI-H460 lung, greater than 50 µM; in the assay with NCI/ADR-RES ovarian, greater than 50 µM; in the assay with PC-3 prostate, greater than 50 µM; with SF-268 CNS, greater than 50 µM; with SF-295 CNS it was 23.7 µM. In addition, the figures for the TGI with SK-MEL-5 melanoma, in the assay with SNB-19 CNS and with SNB-75 CNS were greater than 50 µM, greater than 50 µM and 6.92 µM, respectively.
On to `C=C1C(=O)O[C@H]2[C@H]1CC/C(Cn1cc(CNC(=O)Cc3cn(C(=O)c4ccc(Cl)cc4)c4ccc(OC)cc34)nn1)=C\CC[C@@]1(C)O[C@@H]21`, for which the GI50 was 1.71 µM in the assay on MDA-MB-435; 3.86 µM in the assay on NCI-H460 lung; 46.3 µM in the assay on NCI/ADR-RES ovarian; 1.44 µM in the assay on OVCAR-4 ovarian; 1.89 µM with PC-3 prostate; 1.7 µM in the assay on SF-268 CNS. In addition, the GI50 was 5.78 µM in the assay with SF-295 CNS, 1.77 µM in the assay on SK-MEL-5 melanoma, 2.14 µM in the assay with SNB-19 CNS and 1.54 µM with SNB-75 CNS. Besides, the TGI in the assay with MDA-MB-435 is 3.45 µM; with NCI-H460 lung it was 13.2 µM; in the assay with NCI/ADR-RES ovarian, greater than 100 µM; in the assay on OVCAR-4 ovarian, 3.02 µM; with PC-3 prostate, 3.71 µM; in the assay on SF-268 CNS, 3.52 µM. Also, the TGI worked out at 25.7 µM with SF-295 CNS, 3.28 µM with SK-MEL-5 melanoma, 4.77 µM in the assay with SNB-19 CNS and 4.02 µM with SNB-75 CNS.
As to `O=C1NCc2ccc3c(-c4cccc(Cl)c4)c[nH]c3c21`, the GI50 with MDA-MB-435 was 0.0604 µM; in the assay on NCI-H460 lung, 0.201 µM; in the assay with NCI/ADR-RES ovarian, 0.175 µM; in the assay with OVCAR-4 ovarian, 1.95 µM; in the assay with PC-3 prostate, 0.281 µM; with SF-268 CNS it was 0.5 µM. Moreover, the results for the GI50 in the assay with SF-295 CNS, with SK-MEL-5 melanoma and with SNB-19 CNS were 0.199 µM, 0.269 µM and 0.29 µM, respectively. In addition, the TGI was 0.239 µM with MDA-MB-435; greater than 38.2 µM with NCI-H460 lung; greater than 50 µM in the assay on NCI/ADR-RES ovarian; greater than 50 µM with OVCAR-4 ovarian; greater than 50 µM with PC-3 prostate; greater than 50 µM in the assay on SF-268 CNS. In addition, the results for the TGI with SF-295 CNS, in the assay with SK-MEL-5 melanoma and with SNB-19 CNS were greater than 50 µM, greater than 20.4 µM and greater than 50 µM, respectively.
Regarding `CNc1ccc2nc3ccc(=[N+](C)C)cc-3sc2c1`, the GI50 is 0.547 µM and 0.785 µM with MDA-MB-435; 2.32 µM and 0.879 µM in the assay on NCI-H460 lung; 0.389 µM and 0.298 µM with NCI/ADR-RES ovarian; 0.398 µM and 0.299 µM in the assay with OVCAR-4 ovarian; 0.41 µM and 0.203 µM with PC-3 prostate; 2.28 µM and 0.465 µM with SF-268 CNS. Moreover, the GI50 with SF-295 CNS is 1.35 µM and 0.411 µM; in the assay on SK-MEL-5 melanoma, 0.212 µM and 0.263 µM; in the assay with SNB-19 CNS, 0.747 µM and 0.324 µM; in the assay on SNB-75 CNS it was 1.89 µM and 1.34 µM. Also, the TGI is 2.33 µM and 2.85 µM with MDA-MB-435; 18.5 µM and 11.5 µM in the assay on NCI-H460 lung; 9.17 µM and 7.58 µM with NCI/ADR-RES ovarian; 1.74 µM and 1.9 µM in the assay on OVCAR-4 ovarian; 11.6 µM and 2.87 µM with PC-3 prostate; 18.7 µM and 8.7 µM with SF-268 CNS. Moreover, the TGI in the assay with SF-295 CNS was 10.3 µM and 3.22 µM; with SK-MEL-5 melanoma it was 0.99 µM and 0.875 µM; in the assay on SNB-19 CNS it was 8.83 µM and 6.11 µM; with SNB-75 CNS, 7.36 µM and 7.14 µM.
Regarding `COC(=O)N[C@H]1CCc2c(Br)c(OC)c(OC)c(OC)c2-c2ccc(SC)c(=O)cc21`, the GI50 in the assay with MDA-MB-435 was less than 0.01 µM; in the assay with NCI-H460 lung it was less than 0.01 µM; in the assay with NCI/ADR-RES ovarian, 0.0179 µM; in the assay on OVCAR-4 ovarian, 0.152 µM; in the assay with PC-3 prostate, less than 0.01 µM; in the assay on SF-268 CNS it was less than 0.01 µM. Also, the GI50 in the assay with SK-MEL-5 melanoma, in the assay on SNB-19 CNS and in the assay on SNB-75 CNS was less than 0.01 µM throughout. Further, the TGI in the assay on MDA-MB-435 is less than 0.01 µM; in the assay with NCI-H460 lung, 10.7 µM; with OVCAR-4 ovarian it was greater than 57 µM; in the assay with PC-3 prostate, 32.6 µM; in the assay with SF-268 CNS it was 16.6 µM; in the assay with SK-MEL-5 melanoma it was 0.0182 µM. For the same molecule, the figures for the TGI with SNB-19 CNS and in the assay with SNB-75 CNS were greater than 49.7 µM and 20.9 µM, respectively.
